Measurements from PubChem BioAssay AID434932 (The Scripps Research Institute Molecular Screening Center, 2010).
Activity calls are given as the source filed them.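 The calls were made as follows: active = STAT1 activated, EC50 at most 10 µM; inactive = Over 10 µM EC50.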

Test system: NIH 3T3 STAT1-luciferase reporter, IFN-gamma, luminescence
Assay: STAT1 reporter activators in fibroblasts, late-stage follow-up, cell-based, luminescence, NIH 3T3, dose response, powders (AID 434932)

Row | Compound | EC50
1 | O=C(Nc1nc2ccccc2s1)c1cc2ccccc2s1 | 0.835 µM
2 | CCN(CC)c1ccc2cc(C(=O)Nc3ccccn3)c(=O)oc2c1 | 10 µM (inactive)
3 | COc1ccc(-c2cc(C)nc3c(-c4ccccc4)cnn23)cc1 | 4.04 µM
4 | Cc1cc(-c2ccc(F)cc2)n2ncc(-c3ccccc3)c2n1 | 0.0643 µM
5 | O=C(/C=C/Nc1ccccc1F)c1ccc(Br)cc1 | > 55.7 µM (inactive)
6 | Cc1nnc(SCC(=O)Nc2ccc(-c3nc4ccccc4s3)cc2)s1 | > 55.7 µM (inactive)
7 | COc1ccc(-c2csc(N3C(=O)CNC3=S)n2)cc1 | 2.01 µM
8 | COc1ccc2[nH]c3c(c2c1)CCn1c-3nc2ccccc2c1=O | < 0.00283 µM
9 | CC(=O)NC(=S)Nc1sc2c(c1C#N)CCCCC2 | > 55.7 µM (inactive)
10 | CCOC(=O)/C(C#N)=C/c1cc(C)n(-c2ccccc2)c1C | 3.31 µM
